Test results reported in patent publication US11643670B2, “Methods of enhancing chromosomal homologous recombination” (Massachusetts Institute of Technology, priority 2018, dated 2023).

Assays:
[1] = system: maternal Chd2 locus; assay: Donor-free interchromosomal homologous recombination (ICHR) in IVF-derived Chd2^R1684H/+ embryos; type: cell-based, mouse
Method: tracrRNA, crRNAs, and ssODNs were synthesized by Integrated DNA Technologies (TABLE 1). All injection mixtures were prepared in a final volume of 50 μL according to the following methodology: Using RNase-free water, reagents, and consumables, crRNA (final concentration 0.61 μM), tracrRNA (final concentration 0.61 μM), and ultrapure Tris-HCl, pH 7.39 (final concentration 10 mM, ThermoFisher) were mixed and incubated at 95° C. for 5 minutes. The mixtures were cooled to room temperature for 10 minutes on the benchtop, and then, EnGen Cas9-NLS S. pyogenes (New England Biolabs) was added to a final concentration of 30 ng/μL. The mixtures were incubated at 37° C. for 15 minutes before adding any remaining components: ssODN (final concentration 3 ng/μL or 30 ng/μL), RAD51 (Creative Biomart, final concentration 10 ng/μL). Injection mixtures were stored on ice and briefly heated to 37° C. prior to injection. For experiments utilizing RS-1, embryos were cultured in KSOM-AA (EMD Millipore MR-121-D) with […] RS-1 (Sigma) dissolved in DMSO or DMSO (Sigma, 1:1000) for 24 hours, washed, and cultured in EmbryoMax FHM HEPES Buffered Medium (Sigma) until collection for genotyping.
For experiments using wildtype recombinant proteins, the following proteins were used: RAD51 (Creative Biomart RAD51-134H), USP1/WDR48 (Creative Biomart USP1&WDR48-1067H), BCCIP (Origene TP303061), XRCC1 (TP304952), XRCC4 (Origene TP312684), DMC1 (Origene TP318311). For experiments using mutant RAD51, custom RAD51 preparations were produced by Creative Biomart according to their standard protocol for producing the wildtype RAD51 used in all other experiments. Mutant DNA sequences used for cloning are described in TABLE 2. All RAD51 mutants were modeled in human RAD51 transcript variant 4 (NCBI accession NM_001164269), as this is the transcript variant of the wildtype RAD51-134H protein used in all other experiments.
In vitro fertilization was performed using FERTIUP® Mouse Preincubation Medium and CARD MEDIA (Kyudo Company) according to the manufacturer's protocol. Non-virgin Chd2^R1684H/R1684H males that were >8 weeks old were used as sperm donors. Following IVF, embryos were cultured for 8 hours and then injected using the PNI protocol described below.
For all experiments except those described in FIG. 6, the male pronucleus was injected. Injections performed for the CPI portion of FIG. 6 were targeted to the cytoplasm. All microinjections were performed using a Narishige Micromanipulator, Nikon Eclipse TE2000-S microscope, and Eppendorf 5242 microinjector. Individual zygotes were injected with 1-2 pL of injection mixture using an “automatic” injection mode set according to needle size and adjusted for clear increase in pronuclear volume. Following injections, cells were cultured in KSOM-AA until collection for genotyping. For experiments giving rise to F0 animals, embryos were surgically implanted into pseudopregnant CD-1 females (Charles River Laboratories, Strain Code 022) 24-hours post-injection and allowed to develop normally until natural birth.
Embryos were collected at morula-to-blastocyst stage in 4 μL nuclease-free water. After collection, 4 μL of 2× embryo digestion buffer was added to each sample (final concentrations: 125 μg/mL proteinase K, 100 mM Tris-HCl pH 8.0, 100 mM KCl, 0.02% gelatin, 0.45% Tween-20, 60 μg/mL yeast tRNA) and embryos were lysed for 1 hour at 56° C. Proteinase K was inactivated via incubation at 95° C. for 10 minutes and DNA was stored at −20° C. until use.
Chd2^R1684H genotyping was performed via a two-step, nested approach. Except for experiments described in FIGS. 3A-3G, all 8 μL of embryo DNA were used as input for the initial, long round of PCR. Genotyping of mouse pups and adult animals was performed using 2 μL of purified tail DNA. For all embryo genotyping, reactions mixtures were set up in a UV-sterilized laminar flow hood using sterile reagents and filter tips to avoid contamination. […]

[2] = molecular target: T1, Cas9 (Streptococcus pyogenes serotype M1, UniProt Q99ZW2); assay: In vitro Cas9 digestion assay; type: biochemical, S. pyogenes; conditions: 10 ng/μL protein co-incubated, PCR amplimer of the Chd2^R1684H locus, 37° C. 1 hour
T1 construct: NLS (nuclear localization signal); purchased New England Biolabs
T1 sequence (Q99ZW2 whole entry): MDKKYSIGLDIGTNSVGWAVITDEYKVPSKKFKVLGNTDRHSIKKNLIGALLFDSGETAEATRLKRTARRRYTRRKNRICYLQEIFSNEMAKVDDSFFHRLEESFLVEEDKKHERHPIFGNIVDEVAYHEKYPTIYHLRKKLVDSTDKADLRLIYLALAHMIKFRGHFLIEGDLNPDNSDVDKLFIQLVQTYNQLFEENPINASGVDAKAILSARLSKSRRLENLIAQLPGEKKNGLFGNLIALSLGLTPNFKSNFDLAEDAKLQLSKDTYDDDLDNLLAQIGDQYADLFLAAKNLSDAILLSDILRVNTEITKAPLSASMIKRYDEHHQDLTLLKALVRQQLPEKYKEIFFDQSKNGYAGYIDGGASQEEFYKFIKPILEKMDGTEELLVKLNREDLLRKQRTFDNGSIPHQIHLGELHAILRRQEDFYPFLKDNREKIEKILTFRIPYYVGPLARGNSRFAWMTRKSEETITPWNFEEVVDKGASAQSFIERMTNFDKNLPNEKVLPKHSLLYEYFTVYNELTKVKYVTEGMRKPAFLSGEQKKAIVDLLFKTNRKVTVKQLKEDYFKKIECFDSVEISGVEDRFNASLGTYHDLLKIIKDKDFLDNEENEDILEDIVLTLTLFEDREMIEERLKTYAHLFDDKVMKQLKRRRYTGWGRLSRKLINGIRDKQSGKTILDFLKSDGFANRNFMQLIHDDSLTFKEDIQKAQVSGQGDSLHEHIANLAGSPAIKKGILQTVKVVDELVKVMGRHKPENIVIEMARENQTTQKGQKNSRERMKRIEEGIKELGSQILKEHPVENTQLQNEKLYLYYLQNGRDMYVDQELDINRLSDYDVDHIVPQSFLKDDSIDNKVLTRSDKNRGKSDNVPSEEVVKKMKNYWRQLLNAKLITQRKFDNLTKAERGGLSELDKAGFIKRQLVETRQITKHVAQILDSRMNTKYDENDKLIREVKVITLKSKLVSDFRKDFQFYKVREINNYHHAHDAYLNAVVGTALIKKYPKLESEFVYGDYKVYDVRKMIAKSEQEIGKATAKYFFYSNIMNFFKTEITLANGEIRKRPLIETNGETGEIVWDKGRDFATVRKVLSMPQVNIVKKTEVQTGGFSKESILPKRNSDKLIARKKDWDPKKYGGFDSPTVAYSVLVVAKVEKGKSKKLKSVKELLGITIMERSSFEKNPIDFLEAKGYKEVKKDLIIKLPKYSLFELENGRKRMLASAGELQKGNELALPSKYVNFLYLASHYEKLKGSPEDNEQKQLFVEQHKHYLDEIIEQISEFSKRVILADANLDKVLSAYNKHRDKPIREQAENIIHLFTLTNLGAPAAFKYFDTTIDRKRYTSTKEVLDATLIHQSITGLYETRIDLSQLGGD
Method: Wildtype or Chd2^R1684H/R1684H genomic DNA was used as input for PCR using the conditions described above and the primers specified in FIGS. 10A-10D and FIG. 12. After confirmation of a single band via gel electrophoresis, the PCR reactions were purified using the DNA Clean & Concentrator kit (Zymo) according to the manufacturer's instructions. crRNA and tracrRNA were diluted 1 μM in nuclease-free Duplex Buffer (IDT) and incubated at 95° C. for 5 minutes before being allowed to cool to room temperature on the bench. Digestion mixtures were made in separate tubes by combining nuclease-free water, 10× Cas9 Nuclease Reaction Buffer (final concentration 1×, New England Biolabs), 1 μL of the cooled crRNA/tracrRNA duplex, and, if necessary, 1 μL of EnGen Cas9 NLS, S. pyogenes (New England Biolabs). These mixtures were heated to 37° C. for 10 minutes before adding 250 ng PCR product and, if necessary, RAD51 G151D (10 ng/μL final concentration, custom-produced by Creative Biomart) or BCCIP (10 ng/μL final concentration, Origene TP303061). Digestion was performed at 37° C. for 1 hour, Cas9 was denatured at 95° C., 6× Purple Gel Loading Dye (New England Biolabs) was added to a final concentration of 1×, and the samples were allowed to passively cool to room temperature. […]

[3] = co-injected with Cas9/crRNA/tracrRNA, no donor
[4] = compared to embryos injected with wildtype RAD51

Substance | efficiency of ICHR stimulation [1] | embryos with mosaic ICHR that were mosaic with an indel [1] | indel-to-ICHR ratio (level) [1] | ICHR rate compared with baseline (Cas9-only embryos) [1, 3] | edited embryos showing ICHR [1, 3] | indel-to-ICHR ratio ([1]; compared to control embryos) | overall indel rate ([1]; compared to control embryos) | indel-to-ICHR ratio [1, 4] | overall indel rate [1, 4] | effect on mosaicism in embryos exhibiting ICHR ([1]; compared to enhancer-free embryos) | direct inhibition of Cas9 nuclease activity [2]
BCCIP: recombinant BRCA2-interacting protein BCCIP (Origene TP303061) | ~100% | 1/14 | near zero | significantly stronger effect on ICHR rates than USP1/WDR48 | 95% | drastic decrease | drastic decrease | significant decreases | significant decreases | strong effect on mosaicism | not due to direct inhibition of Cas9 activity
G151D: recombinant RAD51 gain-of-function mutant with increased strand exchange activity, SEQ ID NO: 8 | – | – | – | – | – | – | – | – | – | – | did not observe any direct inhibition of Cas9 activity
